The source of these data is patent US20260232578A1, “COMPOSITIONS AND METHODS FOR TRANSMUCOSAL ABSORPTION” (Tonix Pharma Limited, priority 2012, published 2026).

The target in one assay is T1, D2S (Homo sapiens, UniProt P14416).
T1 construct: expressed in transfected cells
The assay can be described thus: Equilibrium receptor binding, recombinant human receptor.

Assay [1] deals with T2, 5-HT2A (Homo sapiens, UniProt P28223).
T2 construct: expressed in transfected cells
As to the kind of experiment: biochemical. Type of assay: binding. The following applies: for Ki: 5-HT2A.

Assay [2] concerns the target T2, 5-HT2A. As to the kind of experiment: G-protein-independent signal transduction, β-arrestin signaling. Type of assay: cell-based. Conditions: for IC50: β-arrestin signaling, read-out: IC50, functional antagonist.
The target in assay [3] is T3, adrenergic alpha-2C receptor (Alpha2C) (Homo sapiens, UniProt P18825).
T3 construct: expressed in transfected cells
T3 sequence (P18825 1-462): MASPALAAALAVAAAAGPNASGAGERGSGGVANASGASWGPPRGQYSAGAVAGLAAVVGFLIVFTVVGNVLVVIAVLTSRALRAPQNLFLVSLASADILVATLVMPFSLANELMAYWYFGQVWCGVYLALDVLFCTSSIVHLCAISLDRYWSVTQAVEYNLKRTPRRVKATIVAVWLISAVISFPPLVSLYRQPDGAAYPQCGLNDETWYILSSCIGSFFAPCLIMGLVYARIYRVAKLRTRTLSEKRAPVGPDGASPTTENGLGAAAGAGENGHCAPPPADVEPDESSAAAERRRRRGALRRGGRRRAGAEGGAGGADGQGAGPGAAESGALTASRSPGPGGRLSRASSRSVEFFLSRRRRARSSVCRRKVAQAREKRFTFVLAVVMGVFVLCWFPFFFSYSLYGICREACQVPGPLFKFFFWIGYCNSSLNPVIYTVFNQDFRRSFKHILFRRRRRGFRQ
The assay can be described thus: Equilibrium receptor binding, recombinant human receptor.

The target of the next assay is T4, dopamine D1 receptor (Homo sapiens, UniProt P21728).
T4 construct: expressed in transfected cells
T4 sequence (P21728 whole entry): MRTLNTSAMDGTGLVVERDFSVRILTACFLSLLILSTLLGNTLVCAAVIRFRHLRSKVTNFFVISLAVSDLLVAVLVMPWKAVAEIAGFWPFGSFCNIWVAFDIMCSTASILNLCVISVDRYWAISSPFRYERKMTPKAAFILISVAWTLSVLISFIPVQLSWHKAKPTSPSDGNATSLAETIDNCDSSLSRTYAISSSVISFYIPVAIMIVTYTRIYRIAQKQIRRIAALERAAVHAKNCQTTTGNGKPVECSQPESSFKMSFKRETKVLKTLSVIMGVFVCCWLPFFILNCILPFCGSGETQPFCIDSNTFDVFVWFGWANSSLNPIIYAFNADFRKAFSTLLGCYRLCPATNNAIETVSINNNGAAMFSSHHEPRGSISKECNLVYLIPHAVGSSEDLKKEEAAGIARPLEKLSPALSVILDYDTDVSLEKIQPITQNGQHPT
As to the kind of experiment: G-protein-dependent signal transduction (Ca2+ mobilization, cAMP production or inositol triphosphate turnover). Type of assay: cell-based. Conditions: for IC50: read-out: IC50 (nM) (Antagonist). In general terms: Calcium assays in cells follow changes in intracellular calcium, usually with a dye or a luminescent sensor.

The next assay deals with 5-HT transporter (Homo sapiens, UniProt P31645). The assay can be described thus: Equilibrium binding to transporters (FIG. 19). The following applies: Serotonin TP (transporter).
Sequence of 5-HT transporter (P31645 whole entry): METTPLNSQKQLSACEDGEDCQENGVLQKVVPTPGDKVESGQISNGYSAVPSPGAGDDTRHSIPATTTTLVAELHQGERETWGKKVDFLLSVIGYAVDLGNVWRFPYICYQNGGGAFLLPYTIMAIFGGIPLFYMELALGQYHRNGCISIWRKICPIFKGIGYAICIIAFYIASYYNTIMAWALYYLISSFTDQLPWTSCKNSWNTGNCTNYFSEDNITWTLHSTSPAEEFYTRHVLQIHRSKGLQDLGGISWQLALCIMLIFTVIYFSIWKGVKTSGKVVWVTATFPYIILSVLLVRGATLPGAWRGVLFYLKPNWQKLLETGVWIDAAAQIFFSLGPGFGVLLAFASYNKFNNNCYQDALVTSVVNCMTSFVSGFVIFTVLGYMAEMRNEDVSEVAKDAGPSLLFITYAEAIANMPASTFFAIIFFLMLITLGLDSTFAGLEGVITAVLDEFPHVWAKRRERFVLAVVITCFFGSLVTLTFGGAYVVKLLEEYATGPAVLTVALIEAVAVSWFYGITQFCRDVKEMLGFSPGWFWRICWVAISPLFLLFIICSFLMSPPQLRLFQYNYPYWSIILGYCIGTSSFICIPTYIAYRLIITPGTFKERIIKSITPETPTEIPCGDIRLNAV
A further assay has as its target dopamine (D) transporter (Homo sapiens, UniProt Q01959). The assay can be described thus: biochemical.
In another assay the target is T5, 5-HT2B (Homo sapiens, UniProt P41595).
T5 construct: expressed in transfected cells
T5 sequence (P41595 whole entry): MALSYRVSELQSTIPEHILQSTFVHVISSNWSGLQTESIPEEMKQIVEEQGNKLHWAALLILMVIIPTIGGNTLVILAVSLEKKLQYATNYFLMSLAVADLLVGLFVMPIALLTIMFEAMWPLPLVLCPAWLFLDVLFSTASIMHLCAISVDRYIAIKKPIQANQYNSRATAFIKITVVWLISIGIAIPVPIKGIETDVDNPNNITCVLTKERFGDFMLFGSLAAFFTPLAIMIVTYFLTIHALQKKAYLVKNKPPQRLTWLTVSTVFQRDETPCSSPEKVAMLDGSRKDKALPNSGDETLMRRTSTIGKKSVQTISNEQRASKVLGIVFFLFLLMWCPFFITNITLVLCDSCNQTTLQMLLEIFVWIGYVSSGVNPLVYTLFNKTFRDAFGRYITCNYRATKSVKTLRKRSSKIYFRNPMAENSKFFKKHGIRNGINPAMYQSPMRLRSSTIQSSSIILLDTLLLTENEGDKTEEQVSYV
The assay can be described thus: G-protein-dependent signal transduction, turnover of inositol triphosphate (IP). Type of assay: cell-based. Conditions: read-out: IC50 (nM) (Antagonist).

A further assay has as its target T6, histamine H1 receptor (Homo sapiens, UniProt P35367).
T6 construct: expressed in transfected cells
The assay can be described thus: G-protein-dependent signal transduction, intracellular Ca2+ mobilization. It is filed as cell-based. Conditions: for IC50: H1, Ca2+ mobilization, read-out: IC50, functional antagonist.

A further assay concerns the target T7, muscarinic M1 receptor (Homo sapiens, UniProt P11229).
T7 sequence (P11229 1-460): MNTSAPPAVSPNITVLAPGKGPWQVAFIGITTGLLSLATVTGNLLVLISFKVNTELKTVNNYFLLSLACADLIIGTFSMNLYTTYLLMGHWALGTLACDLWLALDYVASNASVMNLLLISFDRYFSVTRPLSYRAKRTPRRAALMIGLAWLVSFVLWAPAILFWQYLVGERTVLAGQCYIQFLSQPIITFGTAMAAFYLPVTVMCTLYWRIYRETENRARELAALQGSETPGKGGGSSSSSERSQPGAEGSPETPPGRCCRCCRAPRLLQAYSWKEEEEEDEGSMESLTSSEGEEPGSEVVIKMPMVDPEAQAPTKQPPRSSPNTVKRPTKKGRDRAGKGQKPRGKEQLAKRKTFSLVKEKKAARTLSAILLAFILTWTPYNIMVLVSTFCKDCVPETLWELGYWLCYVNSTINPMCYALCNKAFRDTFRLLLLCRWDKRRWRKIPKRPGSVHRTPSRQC
Described as above. Details: expressed in transfected cells. Conditions: for IC50: M1, Ca2+ mobilization, read-out: IC50, functional antagonist. It is filed as cell-based.

Another assay deals with 5-HT6 (Homo sapiens, UniProt P50406). As to the kind of experiment: Functional antagonism (Table 69).
Sequence of 5-HT6 (P50406 whole entry): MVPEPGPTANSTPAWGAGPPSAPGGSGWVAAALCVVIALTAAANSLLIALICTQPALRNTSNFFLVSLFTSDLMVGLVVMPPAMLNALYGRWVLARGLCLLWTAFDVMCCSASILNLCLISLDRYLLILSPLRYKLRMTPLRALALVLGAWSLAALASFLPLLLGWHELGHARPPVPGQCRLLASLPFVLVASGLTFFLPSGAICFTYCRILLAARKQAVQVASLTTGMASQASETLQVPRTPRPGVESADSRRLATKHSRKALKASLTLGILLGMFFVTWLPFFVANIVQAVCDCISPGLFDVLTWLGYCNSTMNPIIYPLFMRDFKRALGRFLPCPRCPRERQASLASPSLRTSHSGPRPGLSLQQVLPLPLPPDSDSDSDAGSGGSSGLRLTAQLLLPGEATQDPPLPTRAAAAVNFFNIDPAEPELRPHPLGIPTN
For the next assay, the target named is T8, 5-HT2C receptor (Homo sapiens, UniProt P28335).
T8 construct: expressed in transfected cells
T8 sequence (P28335 33-458): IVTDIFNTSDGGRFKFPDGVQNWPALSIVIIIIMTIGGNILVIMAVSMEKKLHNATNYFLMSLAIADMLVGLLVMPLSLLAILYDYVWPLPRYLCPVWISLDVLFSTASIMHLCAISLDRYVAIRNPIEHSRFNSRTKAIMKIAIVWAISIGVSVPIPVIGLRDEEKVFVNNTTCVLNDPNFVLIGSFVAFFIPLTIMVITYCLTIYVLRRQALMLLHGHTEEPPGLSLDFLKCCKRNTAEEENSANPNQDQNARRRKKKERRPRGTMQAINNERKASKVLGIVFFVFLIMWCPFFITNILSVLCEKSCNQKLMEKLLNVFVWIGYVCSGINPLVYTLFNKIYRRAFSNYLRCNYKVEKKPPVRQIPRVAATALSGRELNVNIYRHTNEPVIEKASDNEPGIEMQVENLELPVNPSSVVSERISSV
As to the kind of experiment: Equilibrium receptor binding, recombinant human receptor.

For the next assay, the target named is T9, 5-HT7 (Homo sapiens, UniProt P34969).
T9 construct: expressed in transfected cells
T9 sequence (P34969 whole entry): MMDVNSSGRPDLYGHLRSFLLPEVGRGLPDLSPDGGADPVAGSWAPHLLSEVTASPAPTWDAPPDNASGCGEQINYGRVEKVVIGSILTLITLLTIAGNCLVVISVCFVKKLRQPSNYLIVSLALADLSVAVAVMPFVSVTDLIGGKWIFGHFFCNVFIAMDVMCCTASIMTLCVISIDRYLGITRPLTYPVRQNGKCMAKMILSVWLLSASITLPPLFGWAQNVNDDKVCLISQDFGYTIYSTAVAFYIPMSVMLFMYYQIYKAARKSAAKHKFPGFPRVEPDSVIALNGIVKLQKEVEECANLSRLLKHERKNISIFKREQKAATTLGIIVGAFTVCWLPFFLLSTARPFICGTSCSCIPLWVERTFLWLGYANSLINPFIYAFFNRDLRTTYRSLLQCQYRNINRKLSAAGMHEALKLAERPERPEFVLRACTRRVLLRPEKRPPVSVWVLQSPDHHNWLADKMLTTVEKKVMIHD
Described as above.

Assay [4] has as its target T10, adrenergic α1B receptor (Alpha1B) (Homo sapiens, UniProt P35368).
T10 construct: expressed in transfected cells
The description is as above.

The target in assay [5] is T11, adrenergic α1A receptor (Alpha1A) (Homo sapiens, UniProt P35348).
T11 construct: expressed in transfected cells
T11 sequence (P35348 1-466): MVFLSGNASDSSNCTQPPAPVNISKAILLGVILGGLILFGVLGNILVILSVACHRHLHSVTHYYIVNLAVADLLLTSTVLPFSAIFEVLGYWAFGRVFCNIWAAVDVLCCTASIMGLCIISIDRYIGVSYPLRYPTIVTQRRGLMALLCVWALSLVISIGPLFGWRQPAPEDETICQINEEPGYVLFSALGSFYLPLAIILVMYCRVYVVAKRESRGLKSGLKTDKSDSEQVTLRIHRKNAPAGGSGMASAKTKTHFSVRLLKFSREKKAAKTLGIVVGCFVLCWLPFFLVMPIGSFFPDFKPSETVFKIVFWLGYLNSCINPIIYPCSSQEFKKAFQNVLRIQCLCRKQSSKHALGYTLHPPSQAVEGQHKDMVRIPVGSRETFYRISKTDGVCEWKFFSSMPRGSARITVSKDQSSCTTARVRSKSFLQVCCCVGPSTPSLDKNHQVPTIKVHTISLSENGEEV
The assay is described as above. Conditions: for Ki: Alpha1A.

Structures are written as SMILES. “And” between values parts separate entries of the source, which are not always exact repeats. Equal entries are not always repeated. Some results are limits rather than exact numbers.

T2 sequence (P28223 whole entry): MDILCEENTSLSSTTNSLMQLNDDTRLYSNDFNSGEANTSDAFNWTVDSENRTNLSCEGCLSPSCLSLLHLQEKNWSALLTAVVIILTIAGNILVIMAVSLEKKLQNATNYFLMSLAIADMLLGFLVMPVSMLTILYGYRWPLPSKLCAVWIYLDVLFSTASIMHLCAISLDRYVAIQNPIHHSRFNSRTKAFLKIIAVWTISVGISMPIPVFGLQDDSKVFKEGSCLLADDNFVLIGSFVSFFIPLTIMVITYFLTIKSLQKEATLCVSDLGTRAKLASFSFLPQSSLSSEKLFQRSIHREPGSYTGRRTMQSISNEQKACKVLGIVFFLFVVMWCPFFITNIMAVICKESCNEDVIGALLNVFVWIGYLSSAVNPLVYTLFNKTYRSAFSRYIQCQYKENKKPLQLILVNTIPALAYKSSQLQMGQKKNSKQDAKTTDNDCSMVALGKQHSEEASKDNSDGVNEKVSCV
T6 sequence (P35367 whole entry): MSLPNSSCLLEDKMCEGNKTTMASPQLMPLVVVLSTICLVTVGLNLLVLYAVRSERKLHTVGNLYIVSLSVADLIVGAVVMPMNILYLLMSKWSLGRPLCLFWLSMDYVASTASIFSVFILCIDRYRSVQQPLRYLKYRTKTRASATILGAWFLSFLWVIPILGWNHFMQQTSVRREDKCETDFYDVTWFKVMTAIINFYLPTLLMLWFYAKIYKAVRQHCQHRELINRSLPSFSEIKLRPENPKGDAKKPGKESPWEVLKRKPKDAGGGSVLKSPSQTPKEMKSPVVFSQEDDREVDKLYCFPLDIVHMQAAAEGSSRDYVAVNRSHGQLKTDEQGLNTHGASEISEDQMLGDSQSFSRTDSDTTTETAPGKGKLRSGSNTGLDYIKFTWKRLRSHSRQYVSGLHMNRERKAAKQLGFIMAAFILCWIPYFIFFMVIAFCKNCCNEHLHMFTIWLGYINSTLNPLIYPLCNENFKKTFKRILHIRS
Sequence of dopamine (D) transporter (Q01959 whole entry): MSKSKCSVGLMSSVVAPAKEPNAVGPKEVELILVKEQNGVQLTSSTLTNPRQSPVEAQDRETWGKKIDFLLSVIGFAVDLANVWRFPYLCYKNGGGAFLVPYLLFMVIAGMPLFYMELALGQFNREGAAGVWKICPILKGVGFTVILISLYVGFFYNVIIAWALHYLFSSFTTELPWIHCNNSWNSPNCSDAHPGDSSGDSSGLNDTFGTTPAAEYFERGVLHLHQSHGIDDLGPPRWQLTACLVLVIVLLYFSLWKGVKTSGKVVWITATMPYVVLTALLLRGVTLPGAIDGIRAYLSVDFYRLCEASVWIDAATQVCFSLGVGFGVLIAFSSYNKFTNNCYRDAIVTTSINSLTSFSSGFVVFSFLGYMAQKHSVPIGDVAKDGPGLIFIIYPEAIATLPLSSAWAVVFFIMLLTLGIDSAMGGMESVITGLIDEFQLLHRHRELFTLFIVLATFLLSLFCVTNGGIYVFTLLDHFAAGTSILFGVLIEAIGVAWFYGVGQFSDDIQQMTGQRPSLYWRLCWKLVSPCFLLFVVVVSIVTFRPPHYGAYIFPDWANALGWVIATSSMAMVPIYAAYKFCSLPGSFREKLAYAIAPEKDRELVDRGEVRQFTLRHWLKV
T10 sequence (P35368 whole entry): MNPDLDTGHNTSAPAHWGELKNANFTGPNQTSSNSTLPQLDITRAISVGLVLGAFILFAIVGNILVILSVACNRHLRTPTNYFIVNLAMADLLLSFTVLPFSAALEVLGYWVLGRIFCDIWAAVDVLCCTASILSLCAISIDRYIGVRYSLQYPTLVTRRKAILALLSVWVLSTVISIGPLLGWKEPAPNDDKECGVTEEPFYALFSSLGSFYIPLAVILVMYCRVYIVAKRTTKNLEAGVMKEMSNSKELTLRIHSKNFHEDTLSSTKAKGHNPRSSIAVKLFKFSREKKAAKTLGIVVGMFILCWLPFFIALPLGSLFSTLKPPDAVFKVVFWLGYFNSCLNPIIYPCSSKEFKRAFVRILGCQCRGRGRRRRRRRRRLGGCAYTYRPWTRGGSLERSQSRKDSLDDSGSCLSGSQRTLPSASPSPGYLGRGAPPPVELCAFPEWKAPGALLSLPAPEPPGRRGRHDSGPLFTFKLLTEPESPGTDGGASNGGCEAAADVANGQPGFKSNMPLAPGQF
T1 sequence (P14416 1-414 isoform P14416-2): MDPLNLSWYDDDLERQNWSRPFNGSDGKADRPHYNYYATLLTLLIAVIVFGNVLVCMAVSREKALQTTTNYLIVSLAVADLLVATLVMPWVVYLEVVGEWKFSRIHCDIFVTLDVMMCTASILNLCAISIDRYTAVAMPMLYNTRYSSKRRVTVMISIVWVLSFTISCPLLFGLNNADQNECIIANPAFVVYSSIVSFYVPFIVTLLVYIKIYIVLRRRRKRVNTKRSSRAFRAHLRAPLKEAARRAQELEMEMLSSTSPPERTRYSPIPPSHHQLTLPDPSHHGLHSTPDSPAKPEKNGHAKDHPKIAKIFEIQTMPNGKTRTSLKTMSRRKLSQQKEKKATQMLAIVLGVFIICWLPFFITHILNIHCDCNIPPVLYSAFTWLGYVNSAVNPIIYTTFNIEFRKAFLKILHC

By Ki is commonly meant the equilibrium dissociation constant of an inhibitor or competing ligand from its target. As usually defined, the IC50 is the concentration that gives 50% inhibition. As for `CN(C)CCC=C1c2ccccc2C=Cc2ccccc21` [cyclobenzaprine, 3-(5H-dibenzo[a,d]cyclohepten-5-ylidene)-N,N-dimethyl-1-propanamine], the Ki on D2S is 120 nM; on 5-HT2A [1] it was 5.2 nM and 5.1 nM; in [3] it was 21 nM and 25 nM; at dopamine (D) transporter, more than 10000 nM; at 5-HT2C receptor, 5.2 nM and 43 nM; on 5-HT7, 67 nM. The results for the Ki in [4] and in assay [5] were 9.1 nM and 5.6 nM, respectively. For the same compound, the 50% inhibitory concentration (IC50) at 5-HT2A [2] came to 99 nM; on dopamine D1 receptor it was 65 nM; at 5-HT transporter (read-out: IC50 (nM) (Antagonist)) it was 91 nM; at 5-HT2B it was 760 nM; at histamine H1 receptor, 5.2 nM; on muscarinic M1 receptor, 0.71 nM. The compound further returned an IC50 on 5-HT6 of 2000 nM.
As to `CNCCC=C1c2ccccc2C=Cc2ccccc21` [norcyclobenzaprine, 3-(5H-dibenzo[a,d]cyclohepten-5-ylidene)-N-methyl-1-propanamine], the Ki is 410 nM at D2S; 13 nM and 13.2 nM on 5-HT2A [1]; 48 nM in [3]; 29 nM at 5-HT transporter; more than 10000 nM at dopamine (D) transporter; 43 nM at 5-HT2C receptor. Moreover, the Ki was determined as 140 nM on 5-HT7, 11 nM in assay [4] and 34 nM in [5]. Besides, the “Hill plot ratio (Hill slope)” value on 5-HT2A [1] came to 0.50; at 5-HT2C receptor (equilibrium binding), 1.40; in assay [5] (equilibrium binding, α-1A), 1.16. Further, on 5-HT2A [2], the “Four parameter Hill slope (or fit slope) ratio; β-arrestin signaling” value was 1.11. Also, the IC50 at 5-HT2A [2] was 181 nM; on dopamine D1 receptor, 300 nM; at 5-HT2B, 1400 nM; at histamine H1 receptor, 16 nM; at muscarinic M1 receptor, 8.7 nM; against 5-HT6, 2800 nM. In addition, the results for the “Four parameter Hill slope (or fit slope) ratio; Ca2+ signaling” value on dopamine D1 receptor, at histamine H1 receptor (H1) and on muscarinic M1 receptor (M1) were 0.98, 0.79 and 0.62, respectively.
